The NIST ThermoML archive (doi:10.1021/je700300y)
Numbers after ± are expanded uncertainties.

What was measured:
[1] = 101.33 kPa, Liquid
[2] = refractive index (Na D-line) (dimensionless); settings: 298.15 K; 101.33 kPa; Liquid; Standard Abbe refractometry
[3] = xn = mol fraction of the nth substance listed; settings: 101 kPa, Liquid

CCO [ethanol]
[1]
Settings | mass density [kg/m3]
283.15 K | 797.99 ± 0.23
288.15 K | 793.73 ± 0.23
293.15 K | 789.47 ± 0.24
298.15 K | 785.18 ± 0.24
303.15 K | 780.87 ± 0.24
308.15 K | 776.52 ± 0.25
313.15 K | 772.14 ± 0.25

Settings | refractive index
[2] | 1.3595 ± 0.0007

CO [methanol]
[1]
Settings | mass density [kg/m3]
283.15 K | 800.67 ± 0.23
288.15 K | 795.98 ± 0.23
293.15 K | 791.28 ± 0.23
298.15 K | 786.57 ± 0.24
303.15 K | 781.85 ± 0.24
308.15 K | 777.1 ± 0.25
313.15 K | 772.32 ± 0.25

Settings | refractive index
[2] | 1.327 ± 0.0007

CO [methanol] + CCO
mass density [kg/m3], [3]
Settings | x1 = 0.0729 | x1 = 0.1632 | x1 = 0.3251 | x1 = 0.5592 | x1 = 0.6349 | x1 = 0.7182 | x1 = 0.8027 | x1 = 0.8714 | x1 = 0.9485
283.15 K | 798.11 ± 0.23 | 798.27 ± 0.23 | 798.58 ± 0.23 | 799.14 ± 0.22 | 799.35 ± 0.22 | 799.6 ± 0.22 | 799.88 ± 0.22 | 800.12 ± 0.22 | 800.43 ± 0.22
288.15 K | 793.83 ± 0.23 | 793.97 ± 0.23 | 794.22 ± 0.23 | 794.68 ± 0.23 | 794.85 ± 0.23 | 795.07 ± 0.23 | 795.3 ± 0.23 | 795.51 ± 0.23 | 795.78 ± 0.23
293.15 K | 789.54 ± 0.23 | 789.64 ± 0.23 | 789.84 ± 0.23 | 790.2 ± 0.23 | 790.34 ± 0.23 | 790.52 ± 0.23 | 790.71 ± 0.23 | 790.89 ± 0.23 | 791.1 ± 0.23
298.15 K | 785.23 ± 0.24 | 785.3 ± 0.24 | 785.44 ± 0.24 | 785.7 ± 0.24 | 785.81 ± 0.24 | 785.95 ± 0.24 | 786.11 ± 0.23 | 786.25 ± 0.23 | 786.43 ± 0.23
303.15 K | 780.89 ± 0.24 | 780.94 ± 0.24 | 781.02 ± 0.24 | 781.19 ± 0.24 | 781.26 ± 0.24 | 781.36 ± 0.24 | 781.49 ± 0.24 | 781.59 ± 0.24 | 781.73 ± 0.24
308.15 K | 776.52 ± 0.24 | 776.54 ± 0.24 | 776.57 ± 0.24 | 776.65 ± 0.24 | 776.69 ± 0.24 | 776.76 ± 0.24 | 776.84 ± 0.24 | 776.9 ± 0.24 | 777.01 ± 0.24
313.15 K | 772.12 ± 0.25 | 772.11 ± 0.25 | 772.09 ± 0.25 | 772.08 ± 0.25 | 772.09 ± 0.25 | 772.12 ± 0.25 | 772.16 ± 0.25 | 772.19 ± 0.25 | 772.26 ± 0.25

O [water]
Settings | refractive index
[2] | 1.3326 ± 0.0007
